Data on 24 compounds can be found in patent US9150566B2, “2-(1,2,3-triazol-2-yl)benzamide and 3-(1,2,3-triazol-2-YL)picolinamide derivatives as orexin receptor antagonists” (ACTELION PHARMACEUTICALS LTD., priority 2011, dated 2015).

Molecules are shown by their SMILES. Where two headings read alike, the source gives them in different places.

One data set concerns the target human orexin-1 receptor (Homo sapiens (Human), UniProt O43613). As to the kind of experiment: In vitro intracellular calcium measurements (FLIPR), antagonistic activity on orexin-1 receptor. It counts as cell-based. The following applies: read-out: IC50 OX1. The procedure, abridged: (§1)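 Recombinant CHO lines bearing human OX1 or OX2 receptors received test antagonist 120 min before agonist addition.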

The next data set has as its target human orexin-2 receptor (Homo sapiens (Human), UniProt O43614). Put plainly: In vitro intracellular calcium measurements (FLIPR), antagonistic activity on orexin-2 receptor. The data set is classed as cell-based. The following applies: CHO cells expressing human orexin-2 receptor; FLIPR; 3 nM orexin-A agonist; 120 min antagonist incubation; geometric mean if determined several times; read-out: IC50 OX2. Put shortly:
as §1
In general terms: Calcium flux is commonly read through the fluorescence of an indicator in the cells.

The next data set concerns the target CYP3A4 (Homo sapiens (Human), UniProt P08684). Put plainly: CYP3A4 inhibition assay (human liver microsomes, testosterone 6β-hydroxylation). The following applies: read-out: CYP3A4 IC50, 40 μM testosterone. For orientation: Liver microsomes are a subcellular fraction often used to study metabolism.
Where [1] appears, read: CHO cells expressing human orexin-1 receptor, FLIPR, 3 nM orexin-A agonist, 120 min antagonist incubation, geometric mean if determined several times.

Chain of human orexin-2 receptor (O43614 whole entry): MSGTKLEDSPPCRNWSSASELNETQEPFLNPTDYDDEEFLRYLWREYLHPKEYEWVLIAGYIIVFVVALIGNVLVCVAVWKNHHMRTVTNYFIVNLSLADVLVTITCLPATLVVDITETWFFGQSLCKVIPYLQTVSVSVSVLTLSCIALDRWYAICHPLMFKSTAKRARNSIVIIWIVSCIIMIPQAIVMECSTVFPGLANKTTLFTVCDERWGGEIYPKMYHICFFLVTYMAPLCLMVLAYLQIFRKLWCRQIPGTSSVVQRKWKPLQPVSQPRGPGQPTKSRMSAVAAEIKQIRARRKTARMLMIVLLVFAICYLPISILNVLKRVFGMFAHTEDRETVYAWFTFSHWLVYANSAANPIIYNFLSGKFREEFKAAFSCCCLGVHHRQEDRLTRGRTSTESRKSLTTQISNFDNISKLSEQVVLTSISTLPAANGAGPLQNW
Chain of human orexin-1 receptor (O43613 whole entry): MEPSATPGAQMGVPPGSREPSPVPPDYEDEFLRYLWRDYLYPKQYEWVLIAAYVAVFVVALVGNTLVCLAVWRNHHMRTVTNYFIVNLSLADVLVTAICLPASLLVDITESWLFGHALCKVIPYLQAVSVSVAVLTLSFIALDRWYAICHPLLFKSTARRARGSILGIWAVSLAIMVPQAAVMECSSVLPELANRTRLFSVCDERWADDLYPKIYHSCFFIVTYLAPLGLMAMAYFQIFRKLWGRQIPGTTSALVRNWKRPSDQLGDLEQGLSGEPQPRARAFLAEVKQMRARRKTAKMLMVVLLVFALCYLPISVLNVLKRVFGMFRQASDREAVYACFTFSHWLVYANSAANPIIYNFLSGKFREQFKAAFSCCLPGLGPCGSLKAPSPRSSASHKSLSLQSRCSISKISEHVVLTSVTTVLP
Chain of CYP3A4 (P08684 whole entry): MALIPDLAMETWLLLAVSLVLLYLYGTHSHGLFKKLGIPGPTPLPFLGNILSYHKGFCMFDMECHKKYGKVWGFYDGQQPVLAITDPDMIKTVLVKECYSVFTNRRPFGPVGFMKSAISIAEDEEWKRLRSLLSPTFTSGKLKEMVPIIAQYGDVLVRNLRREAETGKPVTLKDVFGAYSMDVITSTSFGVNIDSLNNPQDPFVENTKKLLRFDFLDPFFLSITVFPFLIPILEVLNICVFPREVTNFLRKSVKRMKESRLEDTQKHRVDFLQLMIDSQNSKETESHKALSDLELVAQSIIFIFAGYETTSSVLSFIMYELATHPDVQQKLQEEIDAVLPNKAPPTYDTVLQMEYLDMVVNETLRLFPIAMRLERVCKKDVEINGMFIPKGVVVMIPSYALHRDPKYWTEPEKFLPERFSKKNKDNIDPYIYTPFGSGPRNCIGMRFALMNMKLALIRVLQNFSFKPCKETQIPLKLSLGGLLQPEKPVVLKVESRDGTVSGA
Description for CYP3A4: The CYP3A4 inhibition assay was performed using human liver microsomes and testosterone 6β-hydroxylation as a P450 isoform-specific marker. In a total volume of 150 μL, ^14C-testosterone at a final concentration of 40 μM in a 100 mM phosphate buffer (pH 7.4) was incubated in a 96-well plate with 0.3 mg/mL of human liver microsomes in an Eppendorf thermomixer at 37° C. and 400 rpm. […] The reaction was initiated by addition of 15 μL of the NADPH-regenerating system containing the glucose-6-phosphate dehydrogenase and terminated after 7 min with a 75 μL-aliquot of methanol. After centrifugation at 465 g and 4° C. for 20 min, a 50 μL-aliquot of the supernatant was submitted to HPLC according to the method described below. The total concentration of DMSO in the assay including controls without inhibitor was 1%.
Nicardipine was run in parallel as a reference inhibitor of CYP3A4 activity at final concentrations of 0, 0.1, 0.5, 1.0, 5.0, 10, 25, and 50 μM. Stock solutions thereof were prepared in DMSO.
The chromatographic separation of testosterone and 6β-hydroxytestosterone was achieved on a Phenomenex Luna C18(2) column (5 μm, 2.0×10 mm) at RT with a flow rate of 0.6 mL/min. Mobile phases consisted of 1% aqueous formic acid (phase A) and methanol (phase B) using a gradient method with 0.9 min total run time.
The quantification of 6β-hydroxytestosterone was carried out using a quadrupole mass spectrometer equipped with an ionspray interface operating in positive ion mode. The parameters of the mass detector were set as follows: capillary voltage 5 kV, auxiliary gas 40 psi, collision gas 3 mTorr, and transfer capillary temperature 420° C.

As to `O=C(c1cccc(Cl)c1-n1nccn1)N1CCOC[C@H]1Cc1cc(-n2nccn2)ccc1Cl` [Example 171, [(R)-3-(2-Chloro-5-[1,2,3]triazol-2-yl-benzyl)-morpholin-4-yl]-(3-chloro-2-[1,2,3]triazol-2-yl-phenyl)-methanone], the IC50 (in general, the point on the concentration scale where inhibition reaches its midpoint) at human orexin-1 receptor (setting [1]) was 10 nM; at human orexin-2 receptor it was 675 nM; on CYP3A4, 13000 nM.
Consider `Cc1ccc(-n2nccn2)c(C(=O)N2CCOC[C@H]2Cc2cccc(-c3nccs3)c2)c1` [Example 43, (5-Methyl-2-[1,2,3]triazol-2-yl-phenyl)-[(R)-3-(3-thiazol-2-yl-benzyl)-morpholin-4-yl]-methanone], for which the half-maximal inhibitory concentration (IC50) worked out at 0.3 nM on human orexin-1 receptor (setting [1]), 273 nM on human orexin-2 receptor and 1200 nM on CYP3A4.
On the same counts, the results for `Cc1ccc(C(=O)N2CCOC[C@H]2Cc2cc(-c3ncon3)ccc2F)c(-n2nccn2)c1` [Example 175, [(R)-3-(2-Fluoro-5-[1,2,4]oxadiazol-3-yl-benzyl)-morpholin-4-yl]-(4-methyl-2-[1,2,3]triazol-2-yl-phenyl)-methanone] are 3 nM, 359 nM and 35000 nM.
In the case of `Cc1ccc(C(=O)N2CCOC[C@H]2Cc2cc(-c3cccnn3)ccc2F)c(-n2nccn2)c1` [Example 166, [(R)-3-(2-Fluoro-5-pyridazin-3-yl-benzyl)-morpholin-4-yl]-(4-methyl-2-[1,2,3]triazol-2-yl-phenyl)-methanone], the IC50 turned out to be 13 nM at human orexin-1 receptor (setting [1]), 1400 nM at human orexin-2 receptor and 19000 nM on CYP3A4.
The corresponding values for `N#Cc1ccc(-n2nccn2)c(C(=O)N2CCOC[C@H]2Cc2cccc(-n3nccn3)c2)c1` [Example 31, 4-[1,2,3]Triazol-2-yl-3-[(R)-3-(3-[1,2,3]triazol-2-yl-benzyl)-morpholine-4-carbonyl]-benzonitrile] are 33 nM, 360 nM and more than 50000 nM.
On the same counts, the results for `CC[C@@H]1CN(C(=O)c2ccccc2-n2nccn2)[C@H](Cc2cccc(-n3nccn3)c2)CO1` [Example 143, [(2R,5R)-2-Ethyl-5-(3-[1,2,3]triazol-2-yl-benzyl)-morpholin-4-yl]-(2-[1,2,3]triazol-2-yl-phenyl)-methanone] are 19 nM, 485 nM and 9100 nM.
In the case of `C[C@@H]1CN(C(=O)c2ccc(Cl)cc2-n2nccn2)[C@H](Cc2cccc(-c3ncccn3)c2)CO1` [Example 114, (4-Chloro-2-[1,2,3]triazol-2-yl-phenyl)-[(2R,5R)-2-methyl-5-(3-pyrimidin-2-yl-benzyl)-morpholin-4-yl]-methanone], the IC50 at human orexin-1 receptor (setting [1]) stood at 1 nM; on human orexin-2 receptor, 83 nM; at CYP3A4, 35000 nM.
As to `Cc1ccc(C(=O)N2CCOC[C@H]2Cc2cc(-c3ncon3)ccc2F)c(-n2nccn2)c1C` [Example 181, (3,4-Dimethyl-2-[1,2,3]triazol-2-yl-phenyl)-[(R)-3-(2-fluoro-5-[1,2,4]oxadiazol-3-yl-benzyl)-morpholin-4-yl]-methanone], the concentration for half-maximal inhibition (IC50) at human orexin-1 receptor (setting [1]) came out at 11 nM; on human orexin-2 receptor, 1570 nM; at CYP3A4, 36000 nM.
As to `C[C@@H]1CN(C(=O)c2cccc(Cl)c2-n2nccn2)[C@H](Cc2cc(-n3nccn3)ccc2F)CO1` [Example 173, (3-Chloro-2-[1,2,3]triazol-2-yl-phenyl)-[(2R,5R)-5-(2-fluoro-5-[1,2,3]triazol-2-yl-benzyl)-2-methyl-morpholin-4-yl]-methanone], the values for the 50% inhibitory concentration (IC50) at human orexin-1 receptor (setting [1]), at human orexin-2 receptor and on CYP3A4 were 16 nM, 455 nM and 21000 nM, respectively.
On to `COc1ccc(C[C@@H]2COCCN2C(=O)c2ccccc2-n2nccn2)cc1-n1cccn1` [Example 14, [(R)-3-(4-Methoxy-3-pyrazol-1-yl-benzyl)-morpholin-4-yl]-(2-[1,2,3]triazol-2-yl-phenyl)-methanone], for which the figures for the half-maximal inhibitory concentration (IC50) at human orexin-1 receptor (setting [1]), on human orexin-2 receptor and on CYP3A4 were 3 nM, 905 nM and more than 50000 nM, respectively.
On the same counts, the results for `COc1cc(C(=O)N2CCOC[C@H]2Cc2cc(-n3nccn3)ccc2F)c(-n2nccn2)cc1Cl` [Example 139, (4-Chloro-5-methoxy-2-[1,2,3]triazol-2-yl-phenyl)-[(R)-3-(2-fluoro-5-[1,2,3]triazol-2-yl-benzyl)-morpholin-4-yl]-methanone] are 10 nM, 191 nM and 13000 nM.
For the compound `Cc1cccc(C(=O)N2C[C@@H](C)OC[C@H]2Cc2cccc(-n3nccn3)c2)c1-n1nccn1` [Example 97, [(2R,5R)-2-Methyl-5-(3-[1,2,3]triazol-2-yl-benzyl)-morpholin-4-yl]-(3-methyl-2-[1,2,3]triazol-2-yl-phenyl)-methanone], the IC50 was found to be 3 nM at human orexin-1 receptor (setting [1]), 237 nM at human orexin-2 receptor and 11000 nM on CYP3A4.
On the same counts, the results for `CC[C@@H]1CN(C(=O)c2ccc(C)cc2-n2nccn2)[C@H](Cc2cccc(-n3nccn3)c2)CO1` [Example 144, [(2R,5R)-2-Ethyl-5-(3-[1,2,3]triazol-2-yl-benzyl)-morpholin-4-yl]-(4-methyl-2-[1,2,3]triazol-2-yl-phenyl)-methanone] are 5 nM, 104 nM and 9600 nM.
Turning to `COc1ccc(C[C@@H]2COCCN2C(=O)c2ccc(F)cc2-n2nccn2)cc1-c1ncon1` [Example 61, (4-Fluoro-2-[1,2,3]triazol-2-yl-phenyl)-[(R)-3-(4-methoxy-3-[1,2,4]oxadiazol-3-yl-benzyl)-morpholin-4-yl]-methanone], the half-inhibitory concentration (IC50) at human orexin-1 receptor (setting [1]) was determined as 1 nM; at human orexin-2 receptor, 60 nM; at CYP3A4 it was 42000 nM.
Regarding `C[C@@H]1CN(C(=O)c2ccc(Cl)cc2-n2nccn2)[C@H](Cc2cccc(-n3nccn3)c2)CO1` [Example 185, (4-Chloro-2-[1,2,3]triazol-2-yl-phenyl)-[(2R,5R)-2-methyl-5-(3-[1,2,3]triazol-2-yl-benzyl)-morpholin-4-yl]-methanone], the figures for the concentration for half-maximal inhibition (IC50) at human orexin-1 receptor (setting [1]), at human orexin-2 receptor and at CYP3A4 were 2 nM, 39 nM and 20000 nM, respectively.
With `Cc1cccc(C(=O)N2CCOC[C@H]2Cc2cc(Cl)cc(-n3nccn3)c2)c1-n1nccn1` [Example 106, [(R)-3-(3-Chloro-5-[1,2,3]triazol-2-yl-benzyl)-morpholin-4-yl]-(3-methyl-2-[1,2,3]triazol-2-yl-phenyl)-methanone], the figures for the IC50 on human orexin-1 receptor (setting [1]), on human orexin-2 receptor and on CYP3A4 were 3 nM, 335 nM and 14000 nM, respectively.
For the compound `O=C(c1ccccc1-n1nccn1)N1CCOC[C@H]1Cc1cc(-n2nccn2)ccc1Cl` [Example 126, [(R)-3-(2-Chloro-5-[1,2,3]triazol-2-yl-benzyl)-morpholin-4-yl]-(2-[1,2,3]triazol-2-yl-phenyl)-methanone], the half-maximal inhibitory concentration (IC50) at human orexin-1 receptor (setting [1]) came to 40 nM; at human orexin-2 receptor, 1480 nM; on CYP3A4 it was 17000 nM.
With `Cc1ccc(C(=O)N2CCOC[C@H]2Cc2cc(-n3cccn3)ccc2C)c(-n2nccn2)c1` [Example 189, [(R)-3-(2-Methyl-5-pyrazol-1-yl-benzyl)-morpholin-4-yl]-(4-methyl-2-[1,2,3]triazol-2-yl-phenyl)-methanone], the 50% inhibitory concentration (IC50) is 12 nM on human orexin-1 receptor (setting [1]), 1090 nM on human orexin-2 receptor and 17000 nM on CYP3A4.
On to `Cc1ccc(C(=O)N2CCOC[C@H]2Cc2cc(-n3nccn3)ccc2Cl)c(-n2nccn2)c1C` [Example 169, [(R)-3-(2-Chloro-5-[1,2,3]triazol-2-yl-benzyl)-morpholin-4-yl]-(3,4-dimethyl-2-[1,2,3]triazol-2-yl-phenyl)-methanone], for which the IC50 on human orexin-1 receptor (setting [1]) worked out at 5 nM; at human orexin-2 receptor, 2440 nM; on CYP3A4, 29000 nM.
With `Cc1ccc(C(=O)N2CCOC[C@H]2Cc2cc(Cl)cc(-n3nccn3)c2)c(-n2nccn2)c1` [Example 105, [(R)-3-(3-Chloro-5-[1,2,3]triazol-2-yl-benzyl)-morpholin-4-yl]-(4-methyl-2-[1,2,3]triazol-2-yl-phenyl)-methanone], the IC50 at human orexin-1 receptor was 2 nM; on human orexin-2 receptor, 101 nM; on CYP3A4, 21000 nM.
Take `COc1cc(C(=O)N2CCOC[C@H]2Cc2cc(-n3nccn3)ccc2F)c(-n2nccn2)cc1C` [Example 134, [(R)-3-(2-Fluoro-5-[1,2,3]triazol-2-yl-benzyl)-morpholin-4-yl]-(5-methoxy-4-methyl-2-[1,2,3]triazol-2-yl-phenyl)-methanone]: the IC50 is 11 nM on human orexin-1 receptor (setting [1]), 336 nM at human orexin-2 receptor and 19000 nM on CYP3A4.
With `C[C@@H]1CN(C(=O)c2cc(Cl)ccc2-n2nccn2)[C@H](Cc2cccc(-c3ncccn3)c2)CO1` [Example 113, (5-Chloro-2-[1,2,3]triazol-2-yl-phenyl)-[(2R,5R)-2-methyl-5-(3-pyrimidin-2-yl-benzyl)-morpholin-4-yl]-methanone], the values for the half-maximal inhibitory concentration (IC50) at human orexin-1 receptor (setting [1]), at human orexin-2 receptor and at CYP3A4 were 2 nM, 110 nM and 26000 nM, respectively.
The corresponding values for `O=C(c1ccccc1-n1nccn1)N1CCOC[C@H]1Cc1ccc(Cl)c(-c2ncon2)c1` [Example 90, [(R)-3-(4-Chloro-3-[1,2,4]oxadiazol-3-yl-benzyl)-morpholin-4-yl]-(2-[1,2,3]triazol-2-yl-phenyl)-methanone] are 12 nM, 475 nM and 21000 nM.
On the same counts, the results for `COc1ccc(-n2nccn2)c(C(=O)N2CCOC[C@H]2Cc2cccc(-n3nccn3)c2)c1F` [Example 33, (2-Fluoro-3-methoxy-6-[1,2,3]triazol-2-yl-phenyl)-[(R)-3-(3-[1,2,3]triazol-2-yl-benzyl)-morpholin-4-yl]-methanone] are 14 nM, 1200 nM and more than 50000 nM.
